# The NIST ThermoML archive (doi:10.1021/acs.jced.8b00837)
# Values joined by “and” are separate entries in the source; they are usually repeats but may differ in a detail not shown here. Equal values may be shown once. ± gives the expanded uncertainty stated by the source.
# Conditions: Liquid, Vibrating tube method
compound,measurement,setting,value
CCCCn1cc[n+](C)c1.O=S(=O)([O-])C(F)(F)F [1-butyl-3-methylimidazolium trifluoromethanesulfonate],mass density,"283.14 K, 20345 kPa",1320.61 ± 1.8 kg/m3
same,mass density,"283.15 K, 101 kPa",1309.81 ± 1.5 kg/m3 and 1309.8 ± 1.5 kg/m3
same,mass density,"283.15 K, 5337 kPa",1312.37 ± 1.6 kg/m3
same,mass density,"283.15 K, 9906 kPa",1315.03 ± 1.7 kg/m3
same,mass density,"283.15 K, 29997 kPa",1325.6 ± 2 kg/m3
same,mass density,"283.15 K, 90097 kPa",1353.37 ± 2.9 kg/m3
same,mass density,"283.15 K, 100086 kPa",1357.13 ± 3 kg/m3
same,mass density,"283.15 K, 109957 kPa",1361.36 ± 3.2 kg/m3
same,mass density,"283.15 K, 119997 kPa",1365.53 ± 3.4 kg/m3
same,mass density,"283.15 K, 129993 kPa",1369.54 ± 3.5 kg/m3
same,mass density,"283.15 K, 139996 kPa",1373.39 ± 3.7 kg/m3
same,mass density,"283.16 K, 49996 kPa",1335.42 ± 2.2 kg/m3
same,mass density,"283.16 K, 60363 kPa",1340.27 ± 2.4 kg/m3
same,mass density,"283.16 K, 69993 kPa",1344.64 ± 2.6 kg/m3
same,mass density,"283.16 K, 79621 kPa",1348.88 ± 2.7 kg/m3
same,mass density,"283.17 K, 1225 kPa",1310.35 ± 1.6 kg/m3
same,mass density,"283.17 K, 40094 kPa",1330.63 ± 2.1 kg/m3
same,mass density,"288.15 K, 101 kPa",1305.77 ± 1.5 kg/m3
same,mass density,"293.15 K, 101 kPa",1301.75 ± 1.5 kg/m3 and 1301.72 ± 1.5 kg/m3
same,mass density,"293.15 K, 9722 kPa",1307 ± 1.6 kg/m3
same,mass density,"293.15 K, 20425 kPa",1312.86 ± 1.8 kg/m3
same,mass density,"293.15 K, 29997 kPa",1317.9 ± 1.9 kg/m3
same,mass density,"293.15 K, 49997 kPa",1327.93 ± 2.2 kg/m3
same,mass density,"293.15 K, 69996 kPa",1337.34 ± 2.5 kg/m3
same,mass density,"293.15 K, 89996 kPa",1346.17 ± 2.8 kg/m3
same,mass density,"293.15 K, 109846 kPa",1354.33 ± 3.2 kg/m3
same,mass density,"293.15 K, 119150 kPa",1358.24 ± 3.3 kg/m3
same,mass density,"293.15 K, 129846 kPa",1362.58 ± 3.5 kg/m3
same,mass density,"293.15 K, 138949 kPa",1366.14 ± 3.6 kg/m3
same,mass density,"293.16 K, 40322 kPa",1323.16 ± 2.1 kg/m3
same,mass density,"293.16 K, 60340 kPa",1332.87 ± 2.4 kg/m3
same,mass density,"293.16 K, 100028 kPa",1350.06 ± 3 kg/m3
same,mass density,"293.17 K, 80507 kPa",1342.04 ± 2.7 kg/m3
same,mass density,"293.2 K, 1740 kPa",1302.55 ± 1.5 kg/m3
same,mass density,"293.2 K, 4978 kPa",1304.2 ± 1.6 kg/m3
same,mass density,"298.13 K, 30005 kPa",1314.25 ± 1.9 kg/m3
same,mass density,"298.13 K, 90001 kPa",1342.82 ± 2.8 kg/m3
same,mass density,"298.14 K, 59968 kPa",1329.2 ± 2.4 kg/m3
same,mass density,"298.15 K, 101 kPa",1297.74 ± 1.5 kg/m3 and 1297.8 ± 1.5 kg/m3
same,mass density,"298.15 K, 1023 kPa",1298.28 ± 1.5 kg/m3
same,mass density,"298.15 K, 10006 kPa",1303.37 ± 1.6 kg/m3
same,mass density,"298.15 K, 19968 kPa",1308.89 ± 1.8 kg/m3
same,mass density,"298.15 K, 40008 kPa",1319.41 ± 2.1 kg/m3
same,mass density,"298.15 K, 49962 kPa",1324.37 ± 2.2 kg/m3
same,mass density,"298.15 K, 70005 kPa",1333.89 ± 2.5 kg/m3
same,mass density,"298.15 K, 79986 kPa",1338.41 ± 2.7 kg/m3
same,mass density,"298.15 K, 99997 kPa",1347.1 ± 3 kg/m3
same,mass density,"298.15 K, 109968 kPa",1351.04 ± 3.1 kg/m3
same,mass density,"298.15 K, 120001 kPa",1355.27 ± 3.3 kg/m3
same,mass density,"298.15 K, 139996 kPa",1363.31 ± 3.6 kg/m3
same,mass density,"298.16 K, 5026 kPa",1300.4 ± 1.6 kg/m3
same,mass density,"298.16 K, 130002 kPa",1359.35 ± 3.5 kg/m3
same,mass density,"303.15 K, 101 kPa",1293.74 ± 1.5 kg/m3
same,mass density,"313.13 K, 101 kPa",1285.81 ± 1.5 kg/m3
same,mass density,"313.15 K, 101 kPa",1285.7 ± 1.5 kg/m3
same,mass density,"313.15 K, 10395 kPa",1291.48 ± 1.6 kg/m3
same,mass density,"313.15 K, 20326 kPa",1296.92 ± 1.7 kg/m3
same,mass density,"313.15 K, 29996 kPa",1302.11 ± 1.9 kg/m3
same,mass density,"313.15 K, 40009 kPa",1307.36 ± 2 kg/m3
same,mass density,"313.15 K, 49994 kPa",1312.48 ± 2.1 kg/m3
same,mass density,"313.15 K, 70102 kPa",1322.42 ± 2.4 kg/m3
same,mass density,"313.15 K, 79871 kPa",1327.08 ± 2.6 kg/m3
same,mass density,"313.15 K, 90021 kPa",1331.79 ± 2.8 kg/m3
same,mass density,"313.15 K, 99922 kPa",1336.27 ± 2.9 kg/m3
same,mass density,"313.15 K, 109826 kPa",1340.63 ± 3.1 kg/m3
same,mass density,"313.15 K, 121633 kPa",1345.69 ± 3.3 kg/m3
same,mass density,"313.15 K, 129825 kPa",1349.1 ± 3.4 kg/m3
same,mass density,"313.15 K, 139153 kPa",1352.88 ± 3.5 kg/m3
same,mass density,"313.16 K, 60130 kPa",1317.55 ± 2.3 kg/m3
same,mass density,"313.2 K, 1097 kPa",1286.27 ± 1.5 kg/m3
same,mass density,"313.2 K, 5364 kPa",1288.67 ± 1.5 kg/m3
same,mass density,"333.09 K, 1557 kPa",1270.96 ± 1.5 kg/m3
same,mass density,"333.1 K, 5234 kPa",1273.19 ± 1.5 kg/m3
same,mass density,"333.11 K, 9847 kPa",1275.96 ± 1.6 kg/m3
same,mass density,"333.14 K, 19578 kPa",1281.68 ± 1.7 kg/m3
same,mass density,"333.15 K, 101 kPa",1270.09 ± 1.4 kg/m3 and 1270.06 ± 1.4 kg/m3
same,mass density,"333.15 K, 29996 kPa",1287.62 ± 1.8 kg/m3
same,mass density,"333.15 K, 69992 kPa",1308.75 ± 2.4 kg/m3
